In patent US9174996B2, “Protein kinase inhibitors” (Astar Biotech LLC, priority 2012, dated 2015):

Row | SMILES | melting point
1 | CN1CCN(Cc2ccc3nc(-c4ccc(Cl)c(C#Cc5ccc(NC6CCC6)nn5)c4)[nH]c3c2)CC1 [Compound 8, 6-(2-(2-Chloro-5-(6-((4-methylpiperazin-1-yl)methyl)-1H-benzo[d]imidazol-2-yl)phenyl)ethynyl)-N-cyclobutylpyridazin-3-amine] | 161 to 163 °C
2 | Cc1ccc(-c2nc3ccc(CN4CCN(C)CC4)cc3[nH]2)cc1C#Cc1ccc(NC2CC2)nn1 [Compound 2, N-Cyclopropyl-6-(2-(2-methyl-5-(6-((4-methylpiperazin-1-yl)methyl)-1H-benzo[d]imidazol-2-yl)phenyl)ethynyl)pyridazin-3-amine] | 145 to 146 °C
3 | Cc1ccc(-c2nc3ccc(CN4CCN(C)CC4)cc3[nH]2)cc1C#Cc1ccc(NC2CCC2)nn1 [Compound 1, N-Cyclobutyl-6-(2-(2-methyl-5-(6-((4-methylpiperazin-1-yl)methyl)-1H-benzo[d]imidazol-2-yl)phenyl)ethynyl)pyridazin-3-amine] | 148 to 150 °C
4 | CN1CCN(Cc2ccc3nc(-c4ccc(Cl)c(C#Cc5ccc(NC6CC6)nn5)c4)[nH]c3c2)CC1 [Compound 7, 6-(2-(2-Chloro-5-(6-((4-methylpiperazin-1-yl)methyl)-1H-benzo[d]imidazol-2-yl)phenyl)ethynyl)-N-cyclopropylpyridazin-3-amine] | 130 to 131 °C
5 | CC(C)Nc1ccc(C#Cc2cc(-c3nc4ccc(CN5CCN(C)CC5)cc4[nH]3)ccc2Cl)nn1 [Compound 9, 6-(2-(2-Chloro-5-(6-((4-methylpiperazin-1-yl)methyl)-1H-benzo[d]imidazol-2-yl)phenyl)ethynyl)-N-isopropylpyridazin-3-amine] | 127 to 128 °C
6 | Cc1ccc(-c2nc3ccc(CN4CCN(C)CC4)cc3[nH]2)cc1C#Cc1ccc(NC(C)C)nn1 [Compound 4, N-Isopropyl-6-(2-(2-methyl-5-(6-((4-methylpiperazin-1-yl)methyl)-1H-benzo[d]imidazol-2-yl)phenyl)ethynyl)pyridazin-3-amine] | 129 to 130 °C

More lines, now with the values ahead:

Row | melting point | SMILES
7 | 133 to 135 °C | Cc1cn(-c2ccc(NC(=O)c3ccc(Cl)c(C#Cc4ccc(NC(C)C)nn4)c3)cc2C(F)(F)F)cn1 [Compound 22]
8 | 182 to 184 °C | Cc1cn(-c2ccc3nc(-c4ccc(C)c(C#Cc5cnc6cccnn56)c4)[nH]c3c2)cn1 [Compound 11, 3-(2-(2-Methyl-5-(6-(4-methyl-1H-imidazol-1-yl)-1H-benzo[d]imidazol-2-yl)phenyl)ethynyl)imidazo[1,2-b]pyridazine]
9 | 225 to 227 °C | Cc1cn(-c2cc(NC(=O)c3ccc(Cl)c(C#Cc4ccc(NC5CCC5)nn4)c3)cc(C(F)(F)F)c2)cn1 [Compound 27, 4-Chloro-3-(2-(6-(cyclobutylamino)pyridazin-3-yl)ethynyl)-N-(3-(4-methyl-1H-imidazol-1-yl)-5-(trifluoromethyl)phenyl)benzamide]
10 | 125 to 126 °C | Cc1cn(-c2ccc(NC(=O)c3ccc(C)c(C#Cc4ccc(NC5CC5)nn4)c3)cc2C(F)(F)F)cn1 [Compound 18, 3-(2-(6-(Cyclopropylamino)pyridazin-3-yl)ethynyl)-4-methyl-N-(4-(4-methyl-1H-imidazol-1-yl)-3-(trifluoromethyl)phenyl)benzamide]
11 | 192 to 194 °C | Cc1cn(-c2cc(NC(=O)c3ccc(C)c(C#Cc4ccc(NC(C)C)nn4)c3)cc(C(F)(F)F)c2)cn1 [Compound 25, 3-(2-(6-(Isopropylamino)pyridazin-3-yl)ethynyl)-4-methyl-N-(3-(4-methyl-1H-imidazol-1-yl)-5-(trifluoromethyl)phenyl)benzamide]
12 | 150 to 152 °C | Cc1cn(-c2ccc(NC(=O)c3ccc(Cl)c(C#Cc4ccc(NC5CC5)nn4)c3)cc2C(F)(F)F)cn1 [Compound 20, 4-Chloro-3-(2-(6-(cyclopropylamino)pyridazin-3-yl)ethynyl)-N-(4-(4-methyl-1H-imidazol-1-yl)-3-(trifluoromethyl)phenyl)benzamide]
